Earlier results in patent US20260297106A1, “SPIROCYCLIC SUBSTITUTED OXOISOINDOLINYL PIPERIDINE-2,6-DIONE COMPOUND” (Bristol-Myers Squibb Company, priority 2023, published 2026).

Tests used:
[1] = test system: highly immunogenic syngeneic tumors; conditions: engineered mouse models; cited from earlier work
T and NK cell = conditions: preclinical and clinical studies; cited from earlier work

## Nc1cccc2c1CN(C1CCC(=O)NC1=O)C2=O (centres unmarked) [lenalidomide]
[1]
  antitumor immune responses: modestly increase antitumor immune responses
T and NK cell
  T and NK cell functions: augment T and NK cell functions
